Like-named read-outs stand apart in the source and are kept apart here.
Assays:
human PD-L1 = molecular target: T1, human PD-L1 (Homo sapiens, UniProt Q9NZQ7); assay: 1H NMR titration with human PD-L1; format: binding; details: molar ratio 1:1
T1 construct: pET-21b plasmid carrying the PD-L1 gene (amino acids 18–134); made in house; host or cells: Escherichia coli BL21
Description: NMR spectra were recorded in PBS pH 7.4 containing 10% (v/v) of D2O added to the samples to provide the lock signal. Water suppression was carried out using the WATERGATE sequence. All the spectra were recorded at 300 K using a Bruker AVANCE 600 MHz spectrometer with the cryo-platform. The spectra were recorded at the ligand/protein ratio of 1:1, unless stated otherwise. The samples were prepared by adding small amounts of a 50 mM ligand stock solution in DMSO to the protein solution (0.20 mL) of PD-L1 fragment at a concentration of 0.2 mM. Spectra were visualized using TopSpin 4.0.2.

PD-1/PD-L1 complex = PD-1/PD-L1 complex (Homo sapiens, UniProt Q9NZQ7); assay: HTRF assay of PD-1/PD-L1 complex dissociation (CisBio); details: for IC50: HTRF; for remaining activity at 0.005 µM: 2 h;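 as to all read-outs here: human PD-L1 at 5 nM with human PD-1 at 50 nM, TR-FRET signal read after 2 h at room temperature, background removed via negative control and scaled to positive control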
Chain of PD-1/PD-L1 complex (Q9NZQ7 19-238 limits assumed, one chain of several): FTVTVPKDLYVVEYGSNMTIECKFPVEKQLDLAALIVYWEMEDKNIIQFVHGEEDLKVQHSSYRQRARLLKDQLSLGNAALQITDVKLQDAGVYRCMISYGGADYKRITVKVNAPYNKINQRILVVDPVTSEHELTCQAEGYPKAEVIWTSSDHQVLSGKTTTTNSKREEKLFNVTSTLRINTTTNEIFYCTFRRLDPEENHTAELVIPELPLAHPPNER

PD-1/PD-L1 interaction = molecular target: T2, PD-1/PD-L1 interaction (Homo sapiens, UniProt Q9NZQ7); assay: PD-1/PD-L1 ICB assay (Jurkat-ECs with CHO/TCRAct/PD-L1 cells, luciferase); format: cell-based; details: for EC50: Jurkat-ECs with CHO/TCRAct/PD-L1, 6 h, SI csv, read-out: Bioactivity (EC50 in the ICB assay)
T2 construct: host or cells: CHO-K1 (CHO/TCRAct/PD-L1) and Jurkat effector cells
T2 sequence (Q9NZQ7 19-290): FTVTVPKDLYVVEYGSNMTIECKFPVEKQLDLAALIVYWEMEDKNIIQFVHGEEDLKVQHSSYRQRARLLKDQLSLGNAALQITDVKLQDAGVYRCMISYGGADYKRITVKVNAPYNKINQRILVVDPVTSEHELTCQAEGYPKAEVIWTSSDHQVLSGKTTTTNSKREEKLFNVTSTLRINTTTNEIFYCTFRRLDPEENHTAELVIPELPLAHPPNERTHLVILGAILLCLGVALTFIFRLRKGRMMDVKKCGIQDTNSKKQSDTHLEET
Description: After a successful optimization of the terphenyl compounds, the activity of the optimized molecules 7a and 8a–j in a cellular context was assessed. To this end, we first performed the PD-1/PD-L1 ICB assay. In this assay, T-cell receptor (TCR)-mediated activation of Jurkat effector cells (Jurkat-ECs) is reduced by the presence of PD-L1, exposed at the surface of CHO/TCRAct/PD-L1 cells (Figure 3A).
(§1) The functional assay of the blockade of PD-1/PD-L1 interaction in vitro (PD-1/PD-L1 Blockade Bioassay, Promega) was performed according to the manufacturer’s protocol. CHO/TCRAct/PD-L1 cells or CHO/TCRAct or CHO-K1 cells were seeded on 96-well white plates at the density of 10,000 cells/well and the next day overlaid with Jurkat T cells (20,000 cells/well) in the presence of increasing concentrations of the compounds with DMSO only as a control (the concentration of DMSO was kept constant at 0.1%) or atezolizumab, as a positive control, anti-PD-L1 monoclonal antibody (Selleckchem). The 2.5-fold dilutions of atezolizumab were prepared in the assay buffer (RPMI 1640 + 1% FBS) on the day of the assay. Activation of the Jurkat T cells, reflected by luciferase activity, was monitored by luminescence measurements after 6 h of incubation (37 °C, 5% CO2), and 20 min of additional incubation with the Bio-Glo assay reagent (Promega) at room temperature. The luminescence was read on a Spark microplate reader (Tecan). The data are presented as fold induction of the luminescence signal relative to either untreated (for atezolizumab) or DMSO-treated (for compound) cells. Data points represent mean ± SD values from three to five independent experiments. Half-maximal effective concentrations (EC50 values) were calculated from the Hill curve fitting to the experimental data using Origin Pro 2020 software (OriginLab).

[1] = Cytotoxicity assay toward Jurkat-ECs; format: cell-based; details: human, Jurkat-EC cells, SI csv
Description: The cytotoxicity of compounds was verified toward Jurkat-ECs since these cells provide the readout in the ICB assay and present a much higher degree of susceptibility to the compounds’ toxicity than CHO-K1 cells (not shown). Jurkat-ECs were seeded on 96-well transparent plates in the presence of increasing concentrations of the compounds with DMSO-treated cells as a control. The concentration of DMSO was kept constant (0.1%). After 48 h of incubation, a tetrazolium reagent, Biolog redox dye MIX MB (Biolog), was added according to the manufacturer’s protocol, and the culture plates were incubated for an additional 2 h (37 °C, 5% CO2). The absorbance was measured using a Spark microplate reader (Tecan) at 590 nm with 750 nm as a reference. The data are presented as Jurkat-EC survival relative to DMSO-treated control cells. Data points represent mean ± SD values from three independent experiments. Half-maximal effective concentrations (EC50 values) were calculated from the dose–response curve using OriginPro 2020 (OriginLab) software.

[2] = tested on: Jurkat-ECs alone or with CHO wt or CHO/TCRAct cells; assay: ICB assay control where PD-L1 is absent; format: cell-based; details: 6 h; Figure S1
Description: as §1, with “(OriginLab). […]” for “(OriginLab).”
of the Immune Checkpoint Blockade (ICB) assay, where 8h, 8i, and 8j were used to restore the activation of effector Jurkat-ECs. Jurkat-ECs were either kept alone, or contacted with one of the following cell lines: wild type CHO K1 cells (CHO wt), CHO K1 cells expressing TCR Activator (CHO/TCRAct), or CHO K1 cells expressing TCR Activator and […]. The cells were incubated with the indicated concentrations of the compounds for 6 hours and luminescence was measured as an indicator of TCR-dependent activation of Jurkat-ECs. The graphs present fold induction of the luminescence signal relative to DMSO-treated cells. […]

[3] = tested on: primary CD4+ and CD8+ T cells (PBMCs); assay: T-cell activation (TCA) assay, PBMCs with CHO/TCRAct/PD-L1 cells, flow cytometry; format: cell-based, human; details: 48 h; compounds 0.1, 0.5, 2.5 μM; mAbs 5 μg/mL
Description: A standard ICB assay relies on artificial Jurkat-ECs, which are surrogates of T-cells. To verify the potential of the compounds to reactivate the PD-L1-blocked primary T cells, a modified assay termed T-cell activation (TCA) was carried out.[32] In this assay, human primary peripheral blood mononuclear cells (PBMCs) are allowed to make contact with CHO/TCRAct/PD-L1 cells alone or in the presence of PD-1/PD-L1 blockers, and the activation of CD4^+ and CD8^+ T cell is monitored by flow cytometry.
Anticoagulant citrate dextrose-A-treated blood from healthy donors was purchased from the Regional Center of Blood Donation and Blood Therapy in Krakow, Poland. PBMCs were isolated from whole blood by density gradient centrifugation using Pancoll human separating solution (PAN-Biotech GmbH, Aidenbach, Germany). The separated cells were washed and resuspended in RPMI 1640 medium (Biowest) containing 10% FBS (Biowest). PBMCs were added at an amount of 3 × 10^5 to CHO, CHO/TCRAct, or CHO/TCRAct/PD-L1 cells preseeded on 24-well plates in the presence of either anti-PD-L1 mAbs (at the final concentration 5 μg/mL): durvalumab (Selleckchem), atezolizumab (Selleckchem), or avelumab (MedChemExpress) or tested compounds at the concentrations 0.1, 0.5, and 2.5 μM. Untreated cells were used as controls for antibody treatment, while DMSO-treated cells [0.1% (v/v)] were used as controls for compound treatment. The cells were incubated for 48 h (37 °C, 5% CO2) and then detached from the plates with TrypLe Select Enzyme (Thermo Fisher). PBMCs were stained for 20 min at room temperature with the antibodies: anti-CD4-FITC, anti-CD8-BV510, anti-CD69-APC, anti-CD25-PE, anti-HLA-DR-PerCP, and anti-PD1-PECy7 (Becton Dickinson Biosciences, BD). Following two washing steps, the cells were analyzed with a FACSCanto II cytometer. Data analysis was carried out with FlowJo software, followed by statistical significance calculations done with Origin Pro 2020 software (OriginLab). Statistical significance was analyzed with one-way analysis of variance (ANOVA), followed by the Fisher’s posthoc test: *p < 0.05, **p < 0.01, […].

[4] = read-out: % of undissociated complex at 5 nM
[5] = read-out: HTRF % of the undissociated complex at 5 nM
[6] = Table 4, <1.00 = limit of quantification reached

T1 sequence (Q9NZQ7 18-134): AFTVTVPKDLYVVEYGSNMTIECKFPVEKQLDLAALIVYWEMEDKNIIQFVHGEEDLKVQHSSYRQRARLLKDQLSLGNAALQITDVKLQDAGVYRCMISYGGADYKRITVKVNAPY

change of hPD-L1 1H NMR spectrum on adding compound (human PD-L1) | EC50 (PD-1/PD-L1 interaction) [µM] | remaining activity at 0.005 µM (PD-1/PD-L1 complex; [4]) [%] | remaining activity at 0.005 µM (PD-1/PD-L1 complex; [5]) [%] | IC50 (PD-1/PD-L1 complex; [6]) [nM] | Compound | EC50 at 48 h [1] [µM] | other results
broadening of the hPD-L1 proton signals | 2.82 ± 0.4 | 0 | 0 |  | COc1cc(-c2cccc(-c3ccc4c(c3)OCCO4)c2Cl)ccc1CNCCNC(C)=O [7a, N-(2-(((3′-(Benzo-1,4-dioxan-6-yl)-2′-chloro-3-methoxy-[1,1′-biphenyl]-4-yl)methyl)amino)ethyl)acetamide] | 3.19 ± 0.41 | complex dissociation (PD-1/PD-L1 complex; 5 nM ligand): complete complex dissociation; IC50 (PD-1/PD-L1 complex; Table 3): 0.82 ± 0.02 nM
 |  | 5 | 5 | < 1 | COc1cc(-c2cccc(-c3ccc4c(c3)OCCO4)c2Cl)ccc1CN1CCN(C(=O)CN)CC1 [8d, 2-Amino-1-(4-((3′-(benzo-1,4-dioxan-6-yl)-2′-chloro-3-methoxy-[1,1′-biphenyl]-4-yl)methyl)piperazin-1-yl)ethan-1-one] |  | % of the undissociated (remaining) complex (PD-1/PD-L1 complex; 5 nM ligand): 5%
 |  | 88 | 88 | 104 ± 2.17 | COc1cc(-c2cccc(-c3ccc4c(c3)OCCO4)c2Cl)ccc1CN1CCN(S(C)(=O)=O)CC1 [8e, 1-((3′-(Benzo-1,4-dioxan-6-yl)-2′-chloro-3-methoxy-[1,1′-biphenyl]-4-yl)methyl)-4-(methylsulfonyl)piperazine] |  | 
 | 11.1 ± 4.35 | 32 | 32 | 2.07 ± 0.04 | COc1cc(-c2cccc(-c3ccc4c(c3)OCCO4)c2Cl)ccc1CNCCNS(C)(=O)=O [8g, N-(2-(((3′-(Benzo-1,4-dioxan-6-yl)-2′-chloro-3-methoxy-[1,1′-biphenyl]-4-yl)methyl)amino)ethyl)methanesulfonamide] | 4.47 ± 0.58 | 
 | 2.57 ± 0.45 | 0 | 0 | < 1 | COc1cc(-c2cccc(-c3ccc4c(c3)OCCO4)c2Cl)ccc1CNC(CO)CO [8i, 2-(((3′-(Benzo-1,4-dioxan-6-yl)-2′-chloro-3-methoxy-[1,1′-biphenyl]-4-yl)methyl)amino)propane-1,3-diol] | 4.63 ± 0.35 | selectivity of PD-1/PD-L1-blocking activity versus cytotoxicity (PD-1/PD-L1 interaction; EC50 (tox.) vs EC50 (bio.), Figure 3F): highest selectivity; activation of Jurkat-ECs where PD-L1 is absent [2]: requires the presence of PD-L1

Further lines, the compound ahead of its results:

Compound | change of hPD-L1 1H NMR spectrum on adding compound (human PD-L1) | EC50 (PD-1/PD-L1 interaction) [µM] | remaining activity at 0.005 µM (PD-1/PD-L1 complex; [4]) [%] | remaining activity at 0.005 µM (PD-1/PD-L1 complex; [5]) [%] | IC50 (PD-1/PD-L1 complex; [6]) [nM] | EC50 at 48 h [1] [µM] | other results
Cc1c(-c2ccc(CO)cc2)cccc1-c1ccc2c(c1)OCCO2 [4a, (3′-(Benzo-1,4-dioxan-6-yl)-2′-methyl-[1,1′-biphenyl]-4-yl)methanol] | broadening of the hPD-L1 proton signals |  |  |  |  |  | IC50 (PD-1/PD-L1 complex; Table 1): 5520 ± 40 nM
CC(=O)NCCNCc1ccc(-c2cccc(-c3ccc4c(c3)OCCO4)c2Cl)cc1OCC#N [7e, N-(2-(((3′-(Benzo-1,4-dioxan-6-yl)-2′-chloro-3-(cyanomethoxy)-[1,1′-biphenyl]-4-yl)methyl)amino)ethyl)acetamide] | broadening of the hPD-L1 proton signals |  | 1 | 1 |  |  | complex dissociation (PD-1/PD-L1 complex; 5 nM ligand): 99%
COc1cc(-c2cccc(-c3ccc4c(c3)OCCO4)c2Cl)ccc1CNCCNC(=O)CN [8f, 2-Amino-N-(2-(((3′-(benzo-1,4-dioxan-6-yl)-2′-chloro-3-methoxy-[1,1′-biphenyl]-4-yl)methyl)amino)ethyl)acetamide] |  | 3.28 ± 0.6 | 8 | 8 | < 1 | 3.1 ± 0.22 | 
avelumab: therapeutic anti-PD-L1 antibody |  |  |  |  |  |  | numbers of PD-1-positive T cells [3]: increases the expression of PD-1 on T-cells
durvalumab: therapeutic anti-PD-L1 antibody |  |  |  |  |  |  | numbers of PD-1-positive T cells [3]: increases the expression of PD-1 on T-cells

— article PMC8365601, “Terphenyl-Based Small-Molecule Inhibitors of Programmed Cell Death-1/Programmed Death-Ligand 1 Protein–Protein Interaction” (Journal of Medicinal Chemistry, 2021)
